Test results taken from patent publication US20100204265A1 (priority 2009, published 2010).

What follows are compounds tested on ET (Huh-lucubineo-ET) cell line harboring I389luc-ubi-neo/NS3-3′/ET HCV replicon (assay: Replicon assay (HCV replicon, luciferase readout)). Details: Hepatitis C virus.
Format: cell-based
How it was run: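 Compounds at 10-point 2-fold dilutions (overall 0.1 nM to […], 0.5% DMSO) were applied to ET cells carrying a luciferase-neo HCV replicon, seeded a day earlier. After 48-72 hours, luciferase-based % inhibition was fitted with a Hill equation for EC50, and parallel WST-1 readings gave TC50.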

SMILES	EC50 [µM]
CC(C)C(NC(=O)c1cn2cc(-c3ccoc3)cc(C(F)(F)F)c2n1)C(=O)O (centres unmarked) [Compound 272, 2-[(6-Furan-3-yl-8-trifluoromethyl-imidazo[1,2-a]pyridine-2-carbonyl)-amino]-3-methyl-butyric acid]	> 50
CC(C)(C)C(NC(=O)c1cn2cc(-c3ccoc3)cc(C(F)(F)F)c2n1)C(=O)O (centres unmarked) [Compound 273, 2-[(6-Furan-3-yl-8-trifluoromethyl-imidazo[1,2-a]pyridine-2-carbonyl)-amino]-3,3-dimethyl-butyric acid]	> 50
O=C(Cc1cccs1)NCCc1cn2cc(-c3ccoc3)cc(C(F)(F)F)c2n1 [Compound 274, N-[2-(6-Furan-3-yl-8-trifluoromethyl-imidazo[1,2-a]pyridin-2-yl)-ethyl]-2-thiophen-2-yl-acetamide]	> 50
O=C(NCCc1cn2cc(-c3ccoc3)cc(C(F)(F)F)c2n1)C1CC1 [Compound 275, Cyclopropanecarboxylic acid [2-(6-furan-3-yl-8-trifluoromethyl-imidazo[1,2-a]pyridin-2-yl)-ethyl]-amide]	> 50
COC(=O)CCNC(=O)c1cn2cc(-c3ccoc3)cc(C(F)(F)F)c2n1 [Compound 276, 3-[(6-Furan-3-yl-8-trifluoromethyl-imidazo[1,2-a]pyridine-2-carbonyl)-amino]-propionic acid methyl ester]	> 50
CC(NC(=O)c1cn2cc(-c3ccoc3)cc(C(F)(F)F)c2n1)C(N)=O (centres unmarked) [Compound 277, 6-Furan-3-yl-8-trifluoromethyl-imidazo[1,2-a]pyridine-2-carboxylic acid (1-carbamoyl-ethyl)-amide]	> 50
CC(C)C(NC(=O)c1cn2cc(-c3ccoc3)cc(C(F)(F)F)c2n1)C(N)=O (centres unmarked) [Compound 278, 6-Furan-3-yl-8-trifluoromethyl-imidazo[1,2-a]pyridine-2-carboxylic acid (1-carbamoyl-2-methyl-propyl)-amide]	> 50
NC(=O)C(CO)NC(=O)c1cn2cc(-c3ccoc3)cc(C(F)(F)F)c2n1 (centres unmarked) [Compound 279, 6-Furan-3-yl-8-trifluoromethyl-imidazo[1,2-a]pyridine-2-carboxylic acid (1-carbamoyl-2-hydroxy-ethyl)-amide]	> 50
NC(=O)C1CCCN1C(=O)c1cn2cc(-c3ccoc3)cc(C(F)(F)F)c2n1 (centres unmarked) [Compound 280, 1-(6-Furan-3-yl-8-trifluoromethyl-imidazo[1,2-a]pyridine-2-carbonyl)-pyrrolidine-2-carboxylic acid amide]	> 50
CN(C)C(=O)C1CCCN1C(=O)c1cn2cc(-c3ccoc3)cc(C(F)(F)F)c2n1 (centres unmarked) [Compound 281, 1-(6-Furan-3-yl-8-trifluoromethyl-imidazo[1,2-a]pyridine-2-carbonyl)-pyrrolidine-2-carboxylic acid dimethylamide]	> 50
CC(O)C(NC(=O)c1cn2cc(-c3ccoc3)cc(C(F)(F)F)c2n1)C(N)=O (centres unmarked) [Compound 282, 6-Furan-3-yl-8-trifluoromethyl-imidazo[1,2-a]pyridine-2-carboxylic acid (1-carbamoyl-2-hydroxy-propyl)-amide]	> 50
O=C(NCCc1cn2cc(-c3ccoc3)cc(C(F)(F)F)c2n1)Nc1ccccc1 [Compound 283, 1-[2-(6-Furan-3-yl-8-trifluoromethyl-imidazo[1,2-a]pyridin-2-yl)-ethyl]-3-phenyl-urea]	> 50
CC(=O)N1CCCC1C(=O)NCc1cn2cc(-c3ccoc3)cc(C(F)(F)F)c2n1 (centres unmarked) [Compound 284, 1-Acetyl-pyrrolidine-2-carboxylic acid (6-furan-3-yl-8-trifluoromethyl-imidazo[1,2-a]pyridin-2-ylmethyl)-amide]	> 50
O=C(O)CCNC(=O)c1cn2cc(-c3ccoc3)cc(C(F)(F)F)c2n1 [Compound 285, 3-[(6-Furan-3-yl-8-trifluoromethyl-imidazo[1,2-a]pyridine-2-carbonyl)-amino]-propionic acid]	> 50
O=C(NC(Cc1ccccc1)C(=O)O)c1cn2cc(-c3ccoc3)cc(C(F)(F)F)c2n1 (centres unmarked) [Compound 286, 2-[(6-Furan-3-yl-8-trifluoromethyl-imidazo[1,2-a]pyridine-2-carbonyl)-amino]-3-phenyl-propionic acid]	> 50
CSCCC(NC(C)=O)C(=O)NCc1cn2cc(-c3ccoc3)cc(C(F)(F)F)c2n1 (centres unmarked) [Compound 287, 2-Acetylamino-N-(6-furan-3-yl-8-trifluoromethyl-imidazo[1,2-a]pyridin-2-ylmethyl)-4-methylsulfanyl-butyramide]	> 50
CC(=O)N[C@H](C(=O)NCc1cn2cc(-c3ccoc3)cc(C(F)(F)F)c2n1)C(C)C [Compound 288, 2-Acetylamino-N-(6-furan-3-yl-8-trifluoromethyl-imidazo[1,2-a]pyridin-2-ylmethyl)-3-methyl-butyramide]	> 50
CC(=O)NC(C(=O)NCc1cn2cc(-c3ccoc3)cc(C(F)(F)F)c2n1)C(C)O (centres unmarked) [Compound 289, 2-Acetylamino-N-(6-furan-3-yl-8-trifluoromethyl-imidazo[1,2-a]pyridin-2-ylmethyl)-3-hydroxy-butyramide]	> 50

SMILES	EC50 [µM]
COC(=O)CNC(=O)Cc1cn2cc(-c3ccoc3)cc(C(F)(F)F)c2n1 [Compound 290, [2-(6-Furan-3-yl-8-trifluoromethyl-imidazo[1,2-a]pyridin-2-yl)-acetylamino]-acetic acid methyl ester]	> 50
COC(=O)C(CCSC)NC(=O)Cc1cn2cc(-c3ccoc3)cc(C(F)(F)F)c2n1 (centres unmarked) [Compound 291, 2-[2-(6-Furan-3-yl-8-trifluoromethyl-imidazo[1,2-a]pyridin-2-yl)-acetylamino]-4-methylsulfanyl-butyric acid methyl ester]	> 50
COC(=O)C(CO)NC(=O)Cc1cn2cc(-c3ccoc3)cc(C(F)(F)F)c2n1 (centres unmarked) [Compound 292, 2-[2-(6-Furan-3-yl-8-trifluoromethyl-imidazo[1,2-a]pyridin-2-yl)-acetylamino]-3-hydroxy-propionic acid methyl ester]	> 50
COC(=O)C(Cc1cnc[nH]1)NC(=O)Cc1cn2cc(-c3ccoc3)cc(C(F)(F)F)c2n1 (centres unmarked) [Compound 293, 2-[2-(6-Furan-3-yl-8-trifluoromethyl-imidazo[1,2-a]pyridin-2-yl)-acetylamino]-3-(3H-imidazol-4-yl)-propionic acid methyl ester]	> 50
COC(=O)CCNC(=O)Cc1cn2cc(-c3ccoc3)cc(C(F)(F)F)c2n1 [Compound 295, 3-[2-(6-Furan-3-yl-8-trifluoromethyl-imidazo[1,2-a]pyridin-2-yl)-acetylamino]-propionic acid methyl ester]	> 50
CC(NC(=O)Cc1cn2cc(-c3ccoc3)cc(C(F)(F)F)c2n1)C(N)=O (centres unmarked) [Compound 296, 2-[2-(6-Furan-3-yl-8-trifluoromethyl-imidazo[1,2-a]pyridin-2-yl)-acetylamino]-propionamide]	> 50
CC(C)[C@H](NC(=O)Cc1cn2cc(-c3ccoc3)cc(C(F)(F)F)c2n1)C(N)=O [Compound 297, 2-[2-(6-Furan-3-yl-8-trifluoromethyl-imidazol[1,2-a]pyridin-2-yl)-acetylamino]-3-methyl-butyramide]	> 50
CC(O)[C@H](NC(=O)Cc1cn2cc(-c3ccoc3)cc(C(F)(F)F)c2n1)C(N)=O (some centres unmarked) [Compound 299, 2-[2-(6-Furan-3-yl-8-trifluoromethyl-imidazo[1,2-a]pyridin-2-yl)-acetylamino]-3-hydroxy-butyramide]	> 50
NC(=O)CNC(=O)Cc1cn2cc(-c3ccoc3)cc(C(F)(F)F)c2n1 [Compound 300, N-Carbamoylmethyl-2-(6-furan-3-yl-8-trifluoromethyl-imidazo[1,2-a]pyridin-2-yl)-acetamide]	> 50
CNC(=O)CNC(=O)Cc1cn2cc(-c3ccoc3)cc(C(F)(F)F)c2n1 [Compound 301, 2-(6-Furan-3-yl-8-trifluoromethyl-imidazo[1,2-a]pyridin-2-yl)-N-methylcarbamoylmethyl-acetamide]	> 50
CN(C)C(=O)CNC(=O)Cc1cn2cc(-c3ccoc3)cc(C(F)(F)F)c2n1 [Compound 302, N-Dimethylcarbamoylmethyl-2-(6-furan-3-yl-8-trifluoromethyl-imidazo[1,2-a]pyridin-2-yl)-acetamide]	> 50
NC(=O)[C@H](Cc1c[nH]c2ccccc12)NC(=O)Cc1cn2cc(-c3ccoc3)cc(C(F)(F)F)c2n1 [Compound 303, 2-[2-(6-Furan-3-yl-8-trifluoromethyl-imidazo[1,2-a]pyridin-2-yl)-acetylamino]-3-(1H-indol-3-yl)-propionamide]	> 50
COC(=O)C(C)NC(=O)Cc1cn2cc(-c3ccoc3)cc(C(F)(F)F)c2n1 (centres unmarked) [Compound 304, 2-[2-(6-Furan-3-yl-8-trifluoromethyl-imidazo[1,2-a]pyridin-2-yl)-acetylamino]-propionic acid methyl ester]	> 50
COC(=O)C(NC(=O)Cc1cn2cc(-c3ccoc3)cc(C(F)(F)F)c2n1)C(C)O (centres unmarked) [Compound 305, 2-[2-(6-Furan-3-yl-8-trifluoromethyl-imidazo[1,2-a]pyridin-2-yl)-acetylamino]-3-hydroxy-butyric acid methyl ester]	> 50
COC(=O)C(CC(C)C)NC(=O)Cc1cn2cc(-c3ccoc3)cc(C(F)(F)F)c2n1 (centres unmarked) [Compound 306, 2-[2-(6-Furan-3-yl-8-trifluoromethyl-imidazo[1,2-a]pyridin-2-yl)-acetylamino]-4-methyl-pentanoic acid methyl ester]	> 50
COC(=O)C1CCCN1C(=O)Cc1cn2cc(-c3ccoc3)cc(C(F)(F)F)c2n1 (centres unmarked) [Compound 307, 1-[2-(6-Furan-3-yl-8-trifluoromethyl-imidazo[1,2-a]pyridin-2-yl)-acetyl]-pyrrolidine-2-carboxylic acid methyl ester]	> 50
COC(=O)C(NC(=O)Cc1cn2cc(-c3ccoc3)cc(C(F)(F)F)c2n1)c1ccccc1 (centres unmarked) [Compound 309, [2-(6-Furan-3-yl-8-trifluoromethyl-imidazo[1,2-a]pyridin-2-yl)-acetylamino]-phenyl-acetic acid methyl ester]	> 50
